# Measurements: PMC8333425, “Discovery of a dual Ras and ARF6 inhibitor from a GPCR endocytosis screen” (Nature Communications, 2021)
# Tests used:
# Test in all cases: KINOMEscan kinase binding assay
# [1] = biological target: T1, 384 kinases from the human genome (Homo sapiens, UniProt O75460); settings: kinase ERN1 (Entrez ERN1)
# T1 construct: purchased Eurofin/DiscoverX
# Procedure, shortened: (§1)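 A panel of 384 human kinases was profiled by KINOMEscan binding in the presence of 10 µM compound. Kinase–ligand binding was given as percent of DMSO control, averaged from duplicates in a single run, with an S(10) selectivity score.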
# [2] = biological target: T2, 384 kinases from the human genome (Homo sapiens, UniProt O96013); settings: kinase PAK4 (Entrez PAK4)
# T2 construct: purchased Eurofin/DiscoverX
# Procedure, shortened: as §1
# [3] = biological target: T3, 384 kinases from the human genome (Homo sapiens, UniProt P0C264); settings: kinase SgK110 (Entrez SgK110)
# T3 construct: purchased Eurofin/DiscoverX
# Procedure, shortened: as §1
# [4] = biological target: T4, 384 kinases from the human genome (Homo sapiens, UniProt P10721)
# T4 construct: purchased Eurofin/DiscoverX
# Procedure, shortened: as §1
# [5] = biological target: T5, 384 kinases from the human genome (Homo sapiens, UniProt P12931)
# T5 construct: purchased Eurofin/DiscoverX
# Procedure, shortened: as §1
# [6] = biological target: T6, 384 kinases from the human genome (Homo sapiens, UniProt P22455); settings: kinase FGFR4 (Entrez FGFR4)
# T6 construct: purchased Eurofin/DiscoverX
# Procedure, shortened: as §1
# [7] = biological target: T7, 384 kinases from the human genome (Homo sapiens, UniProt P33981); settings: kinase TTK (Entrez TTK)
# T7 construct: purchased Eurofin/DiscoverX
# Procedure, shortened: as §1
# [8] = biological target: T8, 384 kinases from the human genome (Homo sapiens, UniProt P35968); settings: kinase VEGFR2 (Entrez KDR)
# T8 construct: purchased Eurofin/DiscoverX
# Procedure, shortened: as §1
# [9] = biological target: T9, 384 kinases from the human genome (Homo sapiens, UniProt P37023); settings: kinase ACVRL1 (Entrez ACVRL1)
# T9 construct: purchased Eurofin/DiscoverX
# Procedure, shortened: as §1
# [10] = biological target: T10, 384 kinases from the human genome (Homo sapiens, UniProt P42680); settings: kinase TEC (Entrez TEC)
# T10 construct: purchased Eurofin/DiscoverX
# Procedure, shortened: as §1
# [11] = biological target: T11, 384 kinases from the human genome (Homo sapiens, UniProt P48736); settings: kinase PIK3CG (Entrez PIK3CG)
# T11 construct: purchased Eurofin/DiscoverX
# Procedure, shortened: as §1
# [12] = biological target: T12, 384 kinases from the human genome (Homo sapiens, UniProt P54753); settings: kinase EPHB3 (Entrez EPHB3)
# T12 construct: purchased Eurofin/DiscoverX
# Procedure, shortened: as §1
# [13] = biological target: T13, 384 kinases from the human genome (Homo sapiens, UniProt Q00537); settings: kinase PCTK2 (Entrez CDK17)
# T13 construct: purchased Eurofin/DiscoverX
# Procedure, shortened: as §1
# [14] = biological target: T14, 384 kinases from the human genome (Homo sapiens, UniProt Q02763); settings: kinase TIE2 (Entrez TEK)
# T14 construct: purchased Eurofin/DiscoverX
# Procedure, shortened: as §1
# [15] = biological target: T15, 384 kinases from the human genome (Homo sapiens, UniProt Q12851); settings: kinase MAP4K2 (Entrez MAP4K2)
# T15 construct: purchased Eurofin/DiscoverX
# Procedure, shortened: as §1
# [16] = biological target: T16, 384 kinases from the human genome (Homo sapiens, UniProt Q13233); settings: kinase MAP3K1 (Entrez MAP3K1)
# T16 construct: purchased Eurofin/DiscoverX
# Procedure, shortened: as §1
# [17] = biological target: T17, 384 kinases from the human genome (Homo sapiens, UniProt Q13705); settings: kinase ACVR2B (Entrez ACVR2B)
# T17 construct: purchased Eurofin/DiscoverX
# Procedure, shortened: as §1
# [18] = biological target: T18, 384 kinases from the human genome (Homo sapiens, UniProt Q14680); settings: kinase MELK (Entrez MELK)
# T18 construct: purchased Eurofin/DiscoverX
# Procedure, shortened: as §1
# [19] = biological target: T19, 384 kinases from the human genome (Homo sapiens, UniProt Q16620); settings: kinase TRKB (Entrez NTRK2)
# T19 construct: purchased Eurofin/DiscoverX
# Procedure, shortened: as §1
# [20] = biological target: T20, 384 kinases from the human genome (Homo sapiens, UniProt Q5S007); settings: kinase LRRK2 (Entrez LRRK2)
# T20 construct: purchased Eurofin/DiscoverX
# Procedure, shortened: as §1
# [21] = biological target: T21, 384 kinases from the human genome (Homo sapiens, UniProt Q8TDR2); settings: kinase STK35 (Entrez STK35)
# T21 construct: purchased Eurofin/DiscoverX
# Procedure, shortened: as §1
# [22] = biological target: T22, 384 kinases from the human genome (Homo sapiens, UniProt Q8WTQ7); settings: kinase GRK7 (Entrez GRK7)
# T22 construct: purchased Eurofin/DiscoverX
# Procedure, shortened: as §1
# [23] = biological target: T23, 384 kinases from the human genome (Homo sapiens, UniProt Q9BRS2); settings: kinase RIOK1 (Entrez RIOK1)
# T23 construct: purchased Eurofin/DiscoverX
# Procedure, shortened: as §1
# [24] = biological target: T24, 384 kinases from the human genome (Homo sapiens, UniProt Q9H4B4); settings: kinase PLK3 (Entrez PLK3)
# T24 construct: purchased Eurofin/DiscoverX
# Procedure, shortened: as §1
# [25] = biological target: T25, 384 kinases from the human genome (Homo sapiens, UniProt Q9NY57); settings: kinase YANK2 (Entrez STK32B)
# T25 construct: purchased Eurofin/DiscoverX
# Procedure, shortened: as §1
# [26] = biological target: T26, 384 kinases from the human genome (Homo sapiens, UniProt Q9Y2K2); settings: kinase QSK (Entrez KIAA0999)
# T26 construct: purchased Eurofin/DiscoverX
# Procedure, shortened: as §1
# T4 sequence (P10721 26-976): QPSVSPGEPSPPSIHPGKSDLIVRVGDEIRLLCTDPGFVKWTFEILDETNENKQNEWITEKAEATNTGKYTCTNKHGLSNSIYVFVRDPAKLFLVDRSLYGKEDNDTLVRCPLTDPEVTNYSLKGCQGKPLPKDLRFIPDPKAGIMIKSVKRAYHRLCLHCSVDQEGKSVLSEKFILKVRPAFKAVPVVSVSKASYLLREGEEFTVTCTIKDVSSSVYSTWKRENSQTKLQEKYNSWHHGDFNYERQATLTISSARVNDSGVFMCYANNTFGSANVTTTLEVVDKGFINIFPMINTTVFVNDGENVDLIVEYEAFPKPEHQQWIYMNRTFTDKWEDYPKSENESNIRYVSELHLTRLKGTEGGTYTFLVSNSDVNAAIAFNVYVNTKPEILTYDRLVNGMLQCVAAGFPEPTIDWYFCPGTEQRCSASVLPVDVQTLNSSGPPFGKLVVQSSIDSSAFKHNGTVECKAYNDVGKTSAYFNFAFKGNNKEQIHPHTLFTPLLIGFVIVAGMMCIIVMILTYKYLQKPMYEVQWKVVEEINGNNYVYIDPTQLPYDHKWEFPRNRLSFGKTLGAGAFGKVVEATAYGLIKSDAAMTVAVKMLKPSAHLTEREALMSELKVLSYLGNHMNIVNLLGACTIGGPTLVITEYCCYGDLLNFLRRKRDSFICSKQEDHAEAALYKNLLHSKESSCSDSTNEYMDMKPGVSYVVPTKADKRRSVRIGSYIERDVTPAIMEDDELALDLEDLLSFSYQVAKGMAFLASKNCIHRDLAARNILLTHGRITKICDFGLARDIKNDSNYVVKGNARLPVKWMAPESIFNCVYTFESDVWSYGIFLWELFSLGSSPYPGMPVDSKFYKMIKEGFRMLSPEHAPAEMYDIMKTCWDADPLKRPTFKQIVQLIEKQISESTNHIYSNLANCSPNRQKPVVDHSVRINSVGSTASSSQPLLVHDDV
# T5 sequence (P12931 whole entry): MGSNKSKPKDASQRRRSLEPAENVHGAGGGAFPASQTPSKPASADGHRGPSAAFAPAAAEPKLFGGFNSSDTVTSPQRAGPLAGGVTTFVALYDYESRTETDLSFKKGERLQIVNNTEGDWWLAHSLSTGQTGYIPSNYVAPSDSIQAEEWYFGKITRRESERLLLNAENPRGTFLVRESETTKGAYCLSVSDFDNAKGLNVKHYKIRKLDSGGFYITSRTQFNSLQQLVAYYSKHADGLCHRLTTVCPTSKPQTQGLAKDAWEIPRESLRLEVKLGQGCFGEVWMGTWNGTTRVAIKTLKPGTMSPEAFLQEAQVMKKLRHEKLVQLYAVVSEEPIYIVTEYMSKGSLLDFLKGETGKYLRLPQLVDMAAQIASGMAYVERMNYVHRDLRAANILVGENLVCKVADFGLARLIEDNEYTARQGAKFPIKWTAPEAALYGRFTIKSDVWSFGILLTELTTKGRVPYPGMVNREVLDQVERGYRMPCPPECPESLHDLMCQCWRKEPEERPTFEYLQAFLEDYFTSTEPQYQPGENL
# T8 sequence (P35968 20-1356): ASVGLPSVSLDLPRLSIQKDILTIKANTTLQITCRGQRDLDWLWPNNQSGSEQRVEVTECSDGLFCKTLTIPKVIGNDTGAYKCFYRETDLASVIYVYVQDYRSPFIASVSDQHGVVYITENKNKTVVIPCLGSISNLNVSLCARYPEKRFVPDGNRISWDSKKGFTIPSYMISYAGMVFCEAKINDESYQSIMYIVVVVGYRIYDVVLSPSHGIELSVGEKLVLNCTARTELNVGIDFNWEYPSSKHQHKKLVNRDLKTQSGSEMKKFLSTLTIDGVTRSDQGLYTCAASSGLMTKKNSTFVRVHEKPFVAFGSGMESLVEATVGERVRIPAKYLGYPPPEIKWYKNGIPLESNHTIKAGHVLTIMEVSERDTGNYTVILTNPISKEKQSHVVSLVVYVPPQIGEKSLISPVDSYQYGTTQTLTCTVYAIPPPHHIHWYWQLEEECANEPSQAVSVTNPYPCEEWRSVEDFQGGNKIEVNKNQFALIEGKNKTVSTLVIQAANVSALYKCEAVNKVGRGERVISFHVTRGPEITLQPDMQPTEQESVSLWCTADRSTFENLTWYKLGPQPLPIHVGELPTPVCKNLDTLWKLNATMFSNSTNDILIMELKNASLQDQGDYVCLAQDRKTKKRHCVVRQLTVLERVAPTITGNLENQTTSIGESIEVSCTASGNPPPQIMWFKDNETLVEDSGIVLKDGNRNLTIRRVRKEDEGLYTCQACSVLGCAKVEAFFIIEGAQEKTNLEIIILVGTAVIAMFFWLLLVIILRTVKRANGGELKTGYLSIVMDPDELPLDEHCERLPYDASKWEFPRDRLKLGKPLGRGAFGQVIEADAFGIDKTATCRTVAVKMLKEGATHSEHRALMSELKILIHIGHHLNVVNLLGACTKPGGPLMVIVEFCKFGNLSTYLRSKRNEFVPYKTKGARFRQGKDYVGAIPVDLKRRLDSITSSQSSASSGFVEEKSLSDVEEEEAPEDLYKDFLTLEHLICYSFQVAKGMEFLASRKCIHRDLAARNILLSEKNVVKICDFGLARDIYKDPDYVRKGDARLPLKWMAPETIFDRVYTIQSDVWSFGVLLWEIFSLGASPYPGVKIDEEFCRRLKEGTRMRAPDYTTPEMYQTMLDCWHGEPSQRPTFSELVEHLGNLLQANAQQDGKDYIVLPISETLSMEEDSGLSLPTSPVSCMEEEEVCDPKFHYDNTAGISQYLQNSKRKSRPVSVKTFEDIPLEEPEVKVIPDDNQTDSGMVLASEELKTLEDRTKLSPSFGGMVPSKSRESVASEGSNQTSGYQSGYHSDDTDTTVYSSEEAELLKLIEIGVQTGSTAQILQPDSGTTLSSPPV
# T10 sequence (P42680 whole entry): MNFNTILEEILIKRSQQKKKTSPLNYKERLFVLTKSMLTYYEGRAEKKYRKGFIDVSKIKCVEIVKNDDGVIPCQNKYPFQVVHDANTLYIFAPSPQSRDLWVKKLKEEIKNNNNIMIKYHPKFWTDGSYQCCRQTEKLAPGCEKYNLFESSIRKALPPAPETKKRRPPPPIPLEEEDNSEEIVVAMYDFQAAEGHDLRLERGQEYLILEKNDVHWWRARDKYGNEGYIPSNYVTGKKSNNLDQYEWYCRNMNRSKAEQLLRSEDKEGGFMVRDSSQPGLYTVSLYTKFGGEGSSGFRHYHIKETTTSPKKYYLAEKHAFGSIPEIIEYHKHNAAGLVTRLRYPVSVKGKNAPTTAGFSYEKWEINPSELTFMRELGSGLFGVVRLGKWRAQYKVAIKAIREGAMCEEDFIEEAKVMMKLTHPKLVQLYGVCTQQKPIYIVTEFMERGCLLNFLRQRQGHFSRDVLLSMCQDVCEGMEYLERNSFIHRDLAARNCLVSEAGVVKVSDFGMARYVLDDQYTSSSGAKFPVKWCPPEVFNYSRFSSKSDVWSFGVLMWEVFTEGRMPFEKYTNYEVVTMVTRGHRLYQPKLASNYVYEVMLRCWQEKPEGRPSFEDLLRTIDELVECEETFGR
# T3 sequence (P0C264 whole entry): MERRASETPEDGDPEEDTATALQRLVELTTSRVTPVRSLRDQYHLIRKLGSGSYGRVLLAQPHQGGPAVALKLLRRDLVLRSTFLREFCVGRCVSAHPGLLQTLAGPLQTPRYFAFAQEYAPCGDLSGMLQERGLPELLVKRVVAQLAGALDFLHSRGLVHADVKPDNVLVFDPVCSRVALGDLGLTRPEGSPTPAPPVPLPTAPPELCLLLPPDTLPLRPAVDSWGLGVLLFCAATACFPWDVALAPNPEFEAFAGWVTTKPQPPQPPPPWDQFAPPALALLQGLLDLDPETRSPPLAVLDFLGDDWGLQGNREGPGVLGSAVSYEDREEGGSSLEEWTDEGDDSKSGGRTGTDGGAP
# T23 sequence (Q9BRS2 whole entry): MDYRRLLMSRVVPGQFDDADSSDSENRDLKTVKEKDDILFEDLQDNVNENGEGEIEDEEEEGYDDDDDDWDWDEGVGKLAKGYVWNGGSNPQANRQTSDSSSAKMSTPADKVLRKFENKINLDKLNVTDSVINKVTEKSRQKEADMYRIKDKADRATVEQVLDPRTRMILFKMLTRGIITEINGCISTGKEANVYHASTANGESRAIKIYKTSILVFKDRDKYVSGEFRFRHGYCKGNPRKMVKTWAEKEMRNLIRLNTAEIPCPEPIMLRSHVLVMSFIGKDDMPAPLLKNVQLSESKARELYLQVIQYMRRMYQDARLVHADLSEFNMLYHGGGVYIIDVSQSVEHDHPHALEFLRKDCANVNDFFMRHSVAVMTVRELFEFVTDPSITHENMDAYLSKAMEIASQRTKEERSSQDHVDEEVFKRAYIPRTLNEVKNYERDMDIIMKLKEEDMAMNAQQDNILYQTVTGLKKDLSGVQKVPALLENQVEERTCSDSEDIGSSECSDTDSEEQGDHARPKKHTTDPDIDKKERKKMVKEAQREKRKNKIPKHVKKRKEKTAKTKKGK
# T18 sequence (Q14680 whole entry): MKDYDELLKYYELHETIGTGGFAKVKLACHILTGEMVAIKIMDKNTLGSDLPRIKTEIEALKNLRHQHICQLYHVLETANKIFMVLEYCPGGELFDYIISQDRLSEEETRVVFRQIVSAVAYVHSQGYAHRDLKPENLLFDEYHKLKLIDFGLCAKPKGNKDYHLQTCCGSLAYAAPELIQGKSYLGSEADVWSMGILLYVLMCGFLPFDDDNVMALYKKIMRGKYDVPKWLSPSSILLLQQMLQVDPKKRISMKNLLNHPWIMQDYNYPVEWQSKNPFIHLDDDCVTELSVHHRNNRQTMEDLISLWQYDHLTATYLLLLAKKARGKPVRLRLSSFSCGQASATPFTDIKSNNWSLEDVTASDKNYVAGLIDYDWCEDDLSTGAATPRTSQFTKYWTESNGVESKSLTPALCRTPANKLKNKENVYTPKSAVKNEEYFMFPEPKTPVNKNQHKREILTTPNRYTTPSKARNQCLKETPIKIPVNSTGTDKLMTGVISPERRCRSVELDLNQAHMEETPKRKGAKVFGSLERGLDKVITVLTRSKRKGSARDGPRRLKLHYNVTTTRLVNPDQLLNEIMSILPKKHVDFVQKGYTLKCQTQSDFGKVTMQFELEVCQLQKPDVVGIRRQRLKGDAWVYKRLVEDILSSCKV
smiles,measurement,setting,value
CC(C)C(=O)N1CCN(c2ccc(NC(=O)c3cc4ccccc4o3)cc2Cl)CC1 [Compound 21],Percent Control,[1],55%
same,Percent Control,[2],100%
same,Percent Control,[3],79%
same,KIT binding to its ligand affected,"[4]; 10 µM of 21, compared to DMSO (100%)",more than 90%
same,Percent Control,[4]; kinase KIT (Entrez KIT),5.9%
same,Percent Control,[4]; kinase KIT-autoinhibited (Entrez KIT),93%
same,binding to Src,[5]; 10 µM of 21,failed to bind
same,Percent Control,[5]; kinase SRC (Entrez SRC),100%
same,Percent Control,[6],91%
same,Percent Control,[7],92%
same,Percent Control,[8],93%
same,Percent Control,[9],94%
same,Percent Control,[10],98%
same,Percent Control,[11],100%
same,Percent Control,[12],83%
same,Percent Control,[13],99%
same,Percent Control,[14],88%
same,Percent Control,[15],100%
same,Percent Control,[16],92%
same,Percent Control,[17],89%
same,Percent Control,[18],29%
same,Percent Control,[19],55%
same,Percent Control,[20],89%
same,Percent Control,[21],100%
same,Percent Control,[22],90%
same,Percent Control,[23],100%
same,Percent Control,[24],81%
same,Percent Control,[25],98%
same,Percent Control,[26],100%
